{"source": "patent EP0639202B1", "about": "“STABLE POLYPEPTIDE COMPOSITION” (COR THERAPEUTICS, INC., priority 1992, dated 1993)", "key": {"M21 melanoma cells": {"system": "M21 melanoma cells", "test": "Cell adhesion assay: 35S-methionine labelled cells on vitronectin-coated plates", "assay_type": "cell-based", "conditions": "for effect on cell adhesion / attachment to vitronectin (in words): M21 melanoma cells, vitronectin-coated plates", "description": "M21 melanoma cells were labelled with ^35S-methionine, and then added to vitronectin-coated plates in the presence of the indicated concentrations of purified snake venom peptides. Cell attachment was measured by solubilizing the cells remaining after an incubation and wash, as previously describe."}, "GP IIb-IIIa": {"target": "T1, GP IIb-IIIa (Homo sapiens, UniProt P05106+P08514)", "T1 construct": "from tissue", "T1 sequence (P08514 32-887 limits assumed)": "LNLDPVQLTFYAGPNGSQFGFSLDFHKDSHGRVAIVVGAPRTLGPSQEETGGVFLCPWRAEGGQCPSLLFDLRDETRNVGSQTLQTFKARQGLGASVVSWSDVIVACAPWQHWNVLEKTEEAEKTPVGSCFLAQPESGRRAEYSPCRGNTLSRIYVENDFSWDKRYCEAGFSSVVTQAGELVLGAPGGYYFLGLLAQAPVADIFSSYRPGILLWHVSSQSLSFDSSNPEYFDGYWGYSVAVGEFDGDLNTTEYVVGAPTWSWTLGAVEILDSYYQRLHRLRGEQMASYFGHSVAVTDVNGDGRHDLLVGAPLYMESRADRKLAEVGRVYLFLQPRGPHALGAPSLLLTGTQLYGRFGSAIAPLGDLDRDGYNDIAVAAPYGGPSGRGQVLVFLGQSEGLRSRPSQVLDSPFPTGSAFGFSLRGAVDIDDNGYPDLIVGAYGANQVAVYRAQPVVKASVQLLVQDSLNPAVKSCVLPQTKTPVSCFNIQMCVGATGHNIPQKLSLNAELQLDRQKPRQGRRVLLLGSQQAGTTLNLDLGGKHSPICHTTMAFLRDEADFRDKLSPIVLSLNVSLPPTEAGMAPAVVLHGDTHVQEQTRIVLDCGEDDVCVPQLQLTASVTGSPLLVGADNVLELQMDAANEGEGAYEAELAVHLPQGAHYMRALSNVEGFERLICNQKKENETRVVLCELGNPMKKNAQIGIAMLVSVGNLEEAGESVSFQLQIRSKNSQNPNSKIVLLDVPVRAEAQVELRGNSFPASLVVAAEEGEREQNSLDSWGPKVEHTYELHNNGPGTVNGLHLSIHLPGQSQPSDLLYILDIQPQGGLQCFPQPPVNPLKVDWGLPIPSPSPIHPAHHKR", "T1 sequence (P08514 891-1039 limits assumed)": "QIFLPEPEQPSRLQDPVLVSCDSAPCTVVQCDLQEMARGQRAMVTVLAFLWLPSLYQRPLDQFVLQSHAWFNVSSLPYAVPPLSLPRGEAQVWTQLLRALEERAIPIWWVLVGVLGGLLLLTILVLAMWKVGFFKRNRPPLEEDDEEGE", "T1 sequence (P05106 27-788)": "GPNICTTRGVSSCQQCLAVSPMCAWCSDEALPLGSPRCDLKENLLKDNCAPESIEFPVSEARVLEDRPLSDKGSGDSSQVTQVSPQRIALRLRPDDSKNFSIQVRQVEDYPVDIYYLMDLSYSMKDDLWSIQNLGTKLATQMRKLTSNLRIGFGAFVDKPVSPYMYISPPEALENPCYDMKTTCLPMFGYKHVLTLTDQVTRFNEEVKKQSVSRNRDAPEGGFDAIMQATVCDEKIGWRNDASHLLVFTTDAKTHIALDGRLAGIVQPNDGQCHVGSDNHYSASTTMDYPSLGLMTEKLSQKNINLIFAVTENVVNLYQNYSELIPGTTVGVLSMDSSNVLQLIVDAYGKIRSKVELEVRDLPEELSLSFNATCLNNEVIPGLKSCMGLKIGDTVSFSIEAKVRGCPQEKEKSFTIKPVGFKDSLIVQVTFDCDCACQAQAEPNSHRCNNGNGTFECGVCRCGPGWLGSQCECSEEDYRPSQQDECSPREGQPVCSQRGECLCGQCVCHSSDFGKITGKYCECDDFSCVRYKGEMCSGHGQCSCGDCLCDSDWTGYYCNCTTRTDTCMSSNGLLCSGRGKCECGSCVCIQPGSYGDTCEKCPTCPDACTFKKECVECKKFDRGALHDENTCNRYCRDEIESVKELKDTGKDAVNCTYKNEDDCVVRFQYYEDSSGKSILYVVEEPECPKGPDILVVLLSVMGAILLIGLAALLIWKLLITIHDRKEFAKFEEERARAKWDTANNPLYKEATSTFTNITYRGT", "test": "Plate assay: inhibition of fibrinogen binding to immobilized GP IIb-IIIa", "conditions": "for differential: inhibiting the binding of fibrinogen to GP IIb-IIIa as compared to vitronectin to vitronectin receptor (in words): plate assays", "description": "In the assay, GP IIb-IIIa, prepared in purified form, for example as described by Fitzgerald, L.A., et al., Anal Biochem (1985) 151:169-177, incorporated herein by reference, is coated onto a solid support such as beads, test tubes, or microtiter plates. The coated support is then contacted with fibrinogen and with the test material and incubated for a sufficient time to permit maximal binding of fibrinogen to the immobilized GP IIb-IIIa. Fibrinogen is typically provided at a concentration of about 5-50 nM and the test material can, if desired, be added at a series of dilutions. Typical incubations are 2-4 hr at 35°C, the time and temperature being interdependent.\nAfter incubation, the solution containing the fibrinogen and test material is removed and the level of binding of fibrinogen measured by quantitating bound fibrinogen to GP IIb-IIIa. Any suitable means of detection can be used, but it is convenient to employ labeled fibrinogen, for example using radioactive, fluorescent or biotinylated labels. Such methods are well known and need not be elaborated here.\nAssessment of the results is aided by employing a control sample, usually identical to the test sample except that the test substance is absent. In this case, percent inhibition may be calculated using the basis, so that % inhibition =(control - test)/(control)x 100. [formula] Other measures of inhibition effectiveness, such as IC50, can also be used."}, "[1]": {"target": "ADP-induced human platelet aggregation (Homo sapiens, UniProt P05106+P08514)", "sequence (P08514 32-1039)": "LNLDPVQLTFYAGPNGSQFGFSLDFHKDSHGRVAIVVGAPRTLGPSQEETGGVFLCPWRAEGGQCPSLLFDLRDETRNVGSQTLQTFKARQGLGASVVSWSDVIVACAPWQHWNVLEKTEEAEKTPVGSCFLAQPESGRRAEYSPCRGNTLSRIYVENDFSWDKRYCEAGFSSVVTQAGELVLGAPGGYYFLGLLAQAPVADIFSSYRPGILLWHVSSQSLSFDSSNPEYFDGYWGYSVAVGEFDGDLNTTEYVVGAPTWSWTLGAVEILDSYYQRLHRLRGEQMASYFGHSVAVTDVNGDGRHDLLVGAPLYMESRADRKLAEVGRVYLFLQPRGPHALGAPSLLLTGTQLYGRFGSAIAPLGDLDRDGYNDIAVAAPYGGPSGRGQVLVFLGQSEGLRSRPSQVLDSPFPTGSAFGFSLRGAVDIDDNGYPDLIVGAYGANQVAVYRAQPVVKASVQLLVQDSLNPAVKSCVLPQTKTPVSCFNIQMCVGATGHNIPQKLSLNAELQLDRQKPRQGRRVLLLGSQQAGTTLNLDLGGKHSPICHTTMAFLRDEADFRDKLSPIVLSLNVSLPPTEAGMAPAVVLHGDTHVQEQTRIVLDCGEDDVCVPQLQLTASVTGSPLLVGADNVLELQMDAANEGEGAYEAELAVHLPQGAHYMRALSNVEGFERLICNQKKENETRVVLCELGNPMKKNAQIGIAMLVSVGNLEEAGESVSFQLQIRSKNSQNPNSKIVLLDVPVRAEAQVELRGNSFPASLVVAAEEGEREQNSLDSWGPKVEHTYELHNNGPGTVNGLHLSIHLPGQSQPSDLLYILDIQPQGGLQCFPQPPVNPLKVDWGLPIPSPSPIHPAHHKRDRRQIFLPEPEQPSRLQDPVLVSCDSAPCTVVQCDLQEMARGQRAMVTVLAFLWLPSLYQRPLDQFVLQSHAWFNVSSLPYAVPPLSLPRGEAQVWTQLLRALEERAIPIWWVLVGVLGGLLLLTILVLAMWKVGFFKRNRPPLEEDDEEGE", "sequence (P05106 27-788)": "as the sequence (P05106 27-788) above", "test": "Standard platelet aggregation inhibition assay", "assay_type": "cell-based", "source_text": "In addition to the above plate assays, other assays for platelet aggregation inhibition activity and related activities are also available, as set forth above. In summary, a list of commonly employed assays is as follows: • 1. The plate assays utilizing specific receptors described in the previous paragraphs; • 2. Standard assays directly applied to platelet aggregation, such as those described by Gann, Z.-R., et al., J Biol Chem (1988) 263:19827-19832; Huang, T.F., et al., J Biol Chem (1987) 262:16157-16163; Biochemistry (1989) 28:661-666, cited above and incorporated herein by reference; • 3. An in vivo thrombosis model in dogs as described by Folts, J.D., et al., Circulation (1976) 54:365; and • 4. Effect on cell adhesion using S35 methionine-labeled cells as described hereinbelow in Example 10.\nIC50 values for the analogs of the invention in this assay are as follows:\nA solution was formed in 1.0 M citric acid of greater than 95% pure cyclic form of Mpr-L-homoarginine-Gly-Asp-Trp-Pro-Cys-NH2 • acetate polypeptide (I) at a concentration of up to 200 mg per ml of solution. This solution was diluted to the desired final peptide concentration as follows: This solution was first diluted to about 85% of the final volume with water. The pH of the solution was adjusted to 5.0-5.5 using sodium hydroxide. The solution was then diluted to the final volume with water. Compositions having a concentration of (I) of 0.5 mg/ml and 5.0 mg/ml were formulated and evaluated for stability by HPLC, UV and visual inspection as described in Example 1. The compositions were also evaluated for platelet aggregation inhibiting activity using the assay described above."}, "[2]": {"test": "Storage stability of polypeptide in citrate buffer solution, analysed by reversed phase HPLC", "assay_type": "physicochemical", "set-up": "key: % of main peak of original polypeptide found by HPLC", "conditions": "25 mM citrate buffer pH 5.25, about 1 mg/mL"}, "[3]": {"test": "Storage stability of polypeptide in citrate buffer solution, analysed by reversed phase HPLC", "assay_type": "physicochemical", "description": "One ml aliquots of the above solution of polypeptide in citrate buffer were sealed in borosilicate glass ampules under sterile conditions and stored at a constant temperature. Test sample ampules from each pH and temperature condition 4°C, 50°C and 70°C were removed periodically, visually assessed and then analyzed separately by HPLC using a mobile phase comprising acetonitrile (MeCN) and 0.1% trifluoroacetic (TFA) in water. This stability was evaluated by conventional assay methods applicable to purity, weight or size of polypeptides. These included not only visual evaluations, such as discoloration, transparency and precipitation, and included assays normally applied to separate polypeptides from each other and from other materials by reversed phase high performance liquid chromatography (HPLC).\nResults of these experiments are set forth in Table 1 in which the stability is expressed in terms of the percentage of main peak of original polypeptide found in the sample analyzed by HPLC. The composition was also found to be normal on visual evaluation. […]"}, "vitronectin receptor": {"target": "vitronectin receptor (Homo sapiens, UniProt P05106+P06756)", "sequence (P06756 31-889 limits assumed)": "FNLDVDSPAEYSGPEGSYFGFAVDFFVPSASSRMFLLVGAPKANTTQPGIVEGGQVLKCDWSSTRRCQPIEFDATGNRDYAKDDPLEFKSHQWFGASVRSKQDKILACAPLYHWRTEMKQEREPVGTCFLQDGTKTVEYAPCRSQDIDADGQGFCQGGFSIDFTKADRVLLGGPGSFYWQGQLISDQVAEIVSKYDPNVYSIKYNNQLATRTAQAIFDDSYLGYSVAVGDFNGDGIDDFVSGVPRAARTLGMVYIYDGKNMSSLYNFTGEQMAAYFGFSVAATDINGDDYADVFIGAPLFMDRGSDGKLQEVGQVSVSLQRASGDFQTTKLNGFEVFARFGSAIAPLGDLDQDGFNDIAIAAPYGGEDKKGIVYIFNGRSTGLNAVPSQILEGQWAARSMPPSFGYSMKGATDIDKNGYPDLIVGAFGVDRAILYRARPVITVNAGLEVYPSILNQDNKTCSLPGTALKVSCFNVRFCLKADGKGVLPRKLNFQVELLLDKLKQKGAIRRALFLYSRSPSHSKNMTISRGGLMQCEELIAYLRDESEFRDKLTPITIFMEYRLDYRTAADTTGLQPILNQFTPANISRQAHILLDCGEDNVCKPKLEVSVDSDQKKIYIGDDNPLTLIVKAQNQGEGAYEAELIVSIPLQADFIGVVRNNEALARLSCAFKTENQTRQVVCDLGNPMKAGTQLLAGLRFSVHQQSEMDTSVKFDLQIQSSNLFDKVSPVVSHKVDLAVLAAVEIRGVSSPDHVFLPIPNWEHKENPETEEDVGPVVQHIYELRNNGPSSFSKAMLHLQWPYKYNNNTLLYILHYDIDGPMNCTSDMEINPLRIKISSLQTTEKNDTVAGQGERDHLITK", "sequence (P06756 891-1048 limits assumed)": "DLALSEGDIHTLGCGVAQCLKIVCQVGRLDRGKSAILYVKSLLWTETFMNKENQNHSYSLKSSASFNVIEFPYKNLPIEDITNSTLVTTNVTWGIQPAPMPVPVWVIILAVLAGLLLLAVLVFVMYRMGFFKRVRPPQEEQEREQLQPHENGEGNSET", "sequence (P05106 27-788)": "as the sequence (P05106 27-788) above", "test": "Plate assay: inhibition of vitronectin binding to vitronectin receptor", "conditions": "at concentrations up to 1 uM", "source_text": "The PAI assay systems further include characterization of the PAI specificity by binding inhibition assays identical to that above but substituting other adhesive proteins for Fg and other receptors for GP IIb-IIIa. In particular, inhibition of the binding of vitronectin to the vitronectin receptor; fibronectin to the fibronectin receptor; fibronectin to GP IIb-IIIa and fibrinogen and/or vWF to GP IIb-IIIa can be assessed. The adhesive protein and receptors for these assays are available in the art."}}, "note": "Where a SMILES comes first, the peptide text is derived from it. Bridges are numbered along the chain shown (N, C = ends). [ ]: non-standard residue; d: D form. hArg = N=C(N)NCCCC[C@H](N)C(=O)O; Mpa = O=C(O)CCS", "data": [{"compound": "C[C@H](NC(=O)[C@@H]1CSSC[C@H](NC(=O)CN)C(=O)NCC(=O)N[C@@H](CCCCN)C(=O)NCC(=O)N[C@@H](CC(=O)O)C(=O)N[C@@H](Cc2c[nH]c3ccccc23)C(=O)N2CCC[C@H]2C(=O)N1)C(N)=O", "note": "[Analog #3, G-C-G-K-G-D-W-P-C-A-NH2]", "values": [{"measurement": "effect on M21 cell attachment to vitronectin (in words)", "setting": "M21 melanoma cells; up to 60 uM", "value": "ineffective"}]}, {"compound": "C[C@H](NC(=O)[C@@H]1CSSC[C@H](NC(=O)CN)C(=O)N[C@@H](CCCCN)C(=O)NCC(=O)N[C@@H](CC(=O)O)C(=O)N[C@@H](Cc2c[nH]c3ccccc23)C(=O)N2CCC[C@H]2C(=O)N1)C(N)=O", "note": "[Analog #4] (H-GCKGDWPCA-NH2; disulfide 2-8)", "values": [{"measurement": "differential: inhibiting the binding of fibrinogen to GP IIb-IIIa as compared to vitronectin to vitronectin receptor (in words)", "setting": "GP IIb-IIIa", "value": "highest differential"}]}, {"compound": "NCCCC[C@@H]1NC(=O)CNC(=O)[C@@H](N)CSSC[C@@H](C(N)=O)NC(=O)[C@@H]2CCCN2C(=O)[C@H](Cc2c[nH]c3ccccc23)NC(=O)[C@H](CC(=O)O)NC(=O)CNC1=O", "note": "[Analog #5] (H-CGKGDWPC-NH2; disulfide 1-8)", "values": [{"measurement": "platelet aggregation inhibition activity (in words)", "setting": "[1]", "value": "excellent platelet aggregation inhibition activities"}, {"measurement": "differential: inhibiting the binding of fibrinogen to GP IIb-IIIa as compared to vitronectin to vitronectin receptor (in words)", "setting": "GP IIb-IIIa", "value": "quite specific"}]}, {"compound": "C[C@H](NC(=O)[C@@H]1CSSC[C@H](NC(=O)CN)C(=O)N[C@@H](CCCCN)C(=O)NCC(=O)N[C@@H](CC(=O)O)C(=O)N[C@@H](Cc2c[nH]c3ccccc23)C(=O)N1)C(N)=O", "note": "[Analog #7] (H-GCKGDWCA-NH2; disulfide 2-7)", "values": [{"measurement": "platelet aggregation inhibition activity (in words)", "setting": "[1]", "value": "excellent platelet aggregation inhibition activities"}, {"measurement": "differential: inhibiting the binding of fibrinogen to GP IIb-IIIa as compared to vitronectin to vitronectin receptor (in words)", "setting": "GP IIb-IIIa", "value": "quite specific"}]}, {"compound": "NCCCC[C@@H]1NC(=O)CCSSC[C@@H](C(N)=O)NC(=O)[C@@H]2CCCN2C(=O)[C@H](Cc2c[nH]c3ccccc23)NC(=O)[C@H](CC(=O)O)NC(=O)CNC1=O", "note": "[Analog #19, Mpr-K-G-D-W-P-C-NH2] ([Mpa]KGDWPC-NH2; disulfide 1-7 (inferred))", "values": [{"measurement": "platelet aggregation inhibition activity (in words)", "setting": "[1]", "value": "good platelet aggregation inhibition activity"}]}, {"compound": "N=C(N)NCCCC[C@@H]1NC(=O)CCSSC[C@@H](C(N)=O)NC(=O)[C@@H]2CCCN2C(=O)[C@H](Cc2c[nH]c3ccccc23)NC(=O)[C@H](CC(=O)O)NC(=O)CNC1=O", "note": "[Analog #60, Mpr-(Har)-G-D-W-P-C-NH2] ([Mpa][hArg]GDWPC-NH2; disulfide 1-7 (inferred))", "values": [{"measurement": "effect on cell adhesion / attachment to vitronectin (in words)", "setting": "M21 melanoma cells", "value": "relatively less effective"}, {"measurement": "platelet aggregation inhibition activity (in words)", "setting": "[1]", "value": "efficient at vanishingly small concentrations"}]}, {"compound": "C[C@H](NC(=O)[C@@H]1CSSC[C@H](NC(=O)CN)C(=O)NCC(=O)N[C@@H](CCCNC(=N)N)C(=O)NCC(=O)N[C@@H](CC(=O)O)C(=O)N[C@@H](Cc2c[nH]c3ccccc23)C(=O)N2CCC[C@H]2C(=O)N1)C(N)=O", "note": "[reference compound] (H-GCGRGDWPCA-NH2; disulfide 2-9)", "values": [{"measurement": "effect on cell adhesion / attachment to vitronectin (in words)", "setting": "M21 melanoma cells", "value": "potent inhibitors of cell attachment"}]}, {"compound": "Mpr-Ala-(Har)-G-D-W-P-C-NH2", "values": [{"measurement": "stability by HPLC", "setting": "[2]; 5°C, 0 days", "value": 99.6}, {"measurement": "stability by HPLC", "setting": "[2]; 5°C, 29 days", "value": 98.1}, {"measurement": "stability by HPLC", "setting": "[2]; 5°C, 60 days", "value": 98.3}, {"measurement": "stability by HPLC", "setting": "[2]; 5°C, 90 days", "value": 97.3}, {"measurement": "stability by HPLC", "setting": "[2]; 30°C, 29 days", "value": 97.3}, {"measurement": "stability by HPLC", "setting": "[2]; 30°C, 60 days", "value": 97.3}, {"measurement": "stability by HPLC", "setting": "[2]; 30°C, 90 days", "value": 96.5}, {"measurement": "stability by HPLC", "setting": "[2]; 45°C, 29 days", "value": 95.4}, {"measurement": "stability by HPLC", "setting": "[2]; 45°C, 60 days", "value": 92.6}, {"measurement": "stability by HPLC", "setting": "[2]; 45°C, 90 days", "value": 90.6}]}, {"compound": "Mpr-L-homoarginine-Gly-Asp-Trp-Pro-Cys-NH2 • acetate", "values": [{"measurement": "stability of liquid solution (in words)", "setting": "[3]; Example 1: 2 mg/ml in citrate buffer pH 5.00 and 5.50, about 4°C", "value": "very stable"}, {"measurement": "stability of liquid solution (in words)", "setting": "[3]; Example 1: 2 mg/ml in citrate buffer pH 5.00 and 5.50, up to about 50°C", "value": "still stable"}, {"measurement": "stability of liquid solution (in words)", "setting": "[3]; Example 1: citrate buffer pH 5.00 and 5.50, 70°C, in comparison to citrate buffer solutions at pH 6.0", "value": "much more stable"}]}, {"compound": "[E^28L^41C^64]barbourin (28-73):E-C-A-D-G-L-C-C-D-O-CRFLKKGTVCRVAKGDWNDDTCTG-O-S-C-D-C-P-R-N-G-L-Y-G [Analog #1]", "values": [{"measurement": "effect on cell adhesion / attachment to vitronectin (in words)", "setting": "M21 melanoma cells", "value": "Neither barbourin nor Peptide 1 (truncated barbourin) had a significant effect"}, {"measurement": "affinity for VnR", "setting": "vitronectin receptor", "value": "relative lack of affinity"}, {"measurement": "platelet aggregation inhibition activity (in words)", "setting": "[1]", "value": "potent inhibitors of platelet aggregation"}, {"measurement": "affinity for GP IIb-IIIa (ability to inhibit the binding of fibrinogen to GP IIb-IIIa)", "setting": "GP IIb-IIIa", "value": "high affinity"}]}]}
